The text below walks through data of patent US20100137315A1, “Sphingosine Kinase Inhibitors and Methods of Their Use” (APOGEE BIOTECHNOLOGY CORPORATION, priority 2005, published 2010).

Like-named read-outs stand apart in the source and are kept apart here.

The term Cmax denotes the maximum level reached in the sampled fluid or tissue. The term Tmax denotes the time at which the peak concentration occurs. As usually defined, the half-life is how long it takes for the measured level to halve. Read a low half-life as rapid decline.

Data set [1] relates to IEC6 rat intestinal epithelial cells. As to the kind of experiment: TNFα-induced PGE2 production (Cox-2 activity), ELISA. The format is cell-based. The following applies: 100 ng TNFα/mL, 18 hours, 10 μg/mL compound. Here is the method: (§1) FIG. 3. Inhibition of TNFα-induced Cox-2 activity by Compound 8. Rat IEC6 cells (Panel A) or human endothelial cells (Panel B) were incubated for 18 hours with dimethylsulfoxide (DMSO) as a solvent control, or 100 ng of TNFα/mL in the presence of DMSO or 10 μg/mL of Compound 8. Levels of PGE2 secreted into the medium were quantified by ELISA. Values represent the mean±sd for triplicate samples in a typical experiment.
(§2) To determine the effects of the SK inhibitors on Cox-2 activity, an ELISA assay was used to measure PGE2 production by IEC6 rat intestinal epithelial cells and human endothelial cells treated with TNFα.
In general terms: An ELISA detects its analyte on a solid surface through an enzyme-linked reagent.

The test system of a further data set is human endothelial cells. The data set is described as above. It is filed as cell-based. The following applies: 100 ng TNFα/mL, 18 hours, 10 μg/mL compound. Here is the method:
as §1, §2

Data set [2] in a line: Oral pharmacokinetics in mice. It is filed as in vivo. The following applies: mouse, whole blood; for AUC(0-inf): 100 mg/kg oral gavage in PEG400, female Swiss-Webster mice, blood. Here is the method:
Oral pharmacokinetic studies were performed on Compound 8. The compound was dissolved in PEG400 and administered to female Swiss-Webster mice at a dose of 100 mg/kg by oral gavage. Mice were anesthetized and blood was removed via cardiac puncture at 5 minutes, 30 minutes, 1, 2, and 8 hours. Concentrations of the test compounds were determined using liquid-liquid extraction, appropriate internal standards and reverse phase HPLC with UV detection. Control blood samples were run to identify compound-specific peaks. Pharmacokinetic parameters were calculated using the WINNONLIN analysis software package (Pharsight). Non-compartmental and compartmental models were tested, with the results shown in Table 8 derived from the best fit equations.

Another data set has as its system mice. Put plainly: Chronic DSS-colitis model of IBD (35-day). It is filed as in vivo, mouse. Here is the method: FIG. 8. Effects of Compound 8 on the […] (DAI) in the chronic DSS-colitis model. Mice received 2 cycles (7 days per cycle) of DSS (1.5% cycle 1 and 1% cycle 2), 2 cycles of normal drinking water and were randomized by DAI on Day 28 into groups of 8 mice. The mice were then treated as follows: No DSS (▪)— normal drinking water and orally dosed with PEG400 every day for 7 days (water control); DSS alone (▴)— drinking water containing 1.5% DSS and orally dosed with PEG daily for 7 days; DSS+Compound 8 (▾)-drinking water containing 1.5% DSS and orally dosed with Compound 8 (50 mg/kg) every day for 7 days; DSS+Dipentum (♦)— drinking water containing 1.5% DSS and orally dosed with Dipentum (50 mg/kg). *p<0.001 versus No DSS group.
FIG. 9. Effects of Compound 8 on S1P levels in the colons of the animals in the chronic DSS-colitis model. Colon samples from mice described in FIG. 8 were extracted and assayed for the levels of S1P by LC/MS/MS. Values represent the mean±sd for 8 samples per group; * p<0.05 versus No DSS group.
A 35-day model of IBD was used to evaluate the effectiveness of the SK inhibitor in mice that experience multiple cycles of DSS-induced inflammation. This chronic model is similar to the acute model, except that the DSS concentration in the drinking water is lower and animals receive periodic exposure to DSS (DSS on days 1-7, water on Days 8-13, DSS on day 14-21, water on Days 22-27 and then DSS until the completion of the study on Day 35). In these experiments, treatment of the mice with an SK inhibitor or Dipentum began on Day 28 and continued daily until the completion of the study. The DAI index was monitored every other day until Day 28 and then daily until Day 35. Animals were sacrificed on Day 35, and changes in the colon length and cytokine profiles were measured.
As a final measure of the effects of the SK inhibitors in this chronic model, S1P levels were assayed in the colons of the DSS-treated animals using an LC-MS/MS method. […] Ratios of analyte to internal standard for each sphingolipid were determined. […]

Setting [3] is: female, Swiss-Webster, 100 mg/kg oral gavage, mice.

With `CCCC(=O)Oc1ccc(C=CC(=O)Nc2nc(-c3ccc(Cl)cc3)cs2)cc1OC` [Compound 8, Butyric acid 4-{2-[4-(4-chloro-phenyl)-thiazol-2-ylcarbamoyl]-vinyl}-2-methoxy-phenyl ester], in data set [1], the “TNFα-induced Cox-2 activity (PGE2 production)” value was “strongly suppressed”. In addition, the “TNFα-induced Cox-2 activity (PGE2 production)” value in the data set on human endothelial cells is “strongly suppressed”. In data set [2] (setting [3]), the concentration peaked (Cmax) at 34.4 µM, the Tmax turned out to be 1 h and the half-life was 31.9 h. Besides, in data set [2] (read-out: AUC0 → ∞ (μM*h)), the AUC(0-inf) was found to be 1500 µM·h. The AUC(0-inf) in data set [2] (read-out: AUC0 → ∞ (μg*h/mL)) was 475 µg·h/mL. This compound came in with a colon length with mice (50 mg/kg oral daily Days 28-35, Day 35) of 5.8±0.1 cm. Moreover, the “increase in DAI during third DSS exposure” value with mice (50 mg/kg oral daily Days 28-35, P<0.001 on Day 35) is listed as “significantly suppressed”. For the same compound, the “S1P levels in colon (LC-MS/MS)” value in the data set on mice (oral 50 mg/kg daily, 7 days prior to sacrifice) is recorded as “significant reductions”.
